In US20220031642A1, “Niclosamide Formulations and Methods of Use” (priority 2020, published 2022):

Key:
[1] = human, in vivo, po; cited from earlier work
[2] = test system: SARS-CoV-2; assay: microbe, parasite or virus in culture; assay type: cell-based; conditions: Severe acute respiratory syndrome coronavirus 2, Vero C1008; Vero E6 cells, reporter SARS-CoV-2 MOI of 0.1, luciferase activity 24 h post-infection; read-out: antiviral EC50

O=C(Nc1ccc([N+](=O)[O-])cc1Cl)c1cc(Cl)ccc1O [niclosamide, Niclosamide]
tmax (plasma levels peaked) [1]: 4 h
EC50 [2]: 150 nM
